From US20060069083A1, “Pesticidal dibenzo(hetero)azepine derivatives” (priority 2002, published 2006)

Tests used:
[1] = tested on: Meloidogyne incognita J2 larvae; assay: Root-knot nematode solution assay; assay type: in vivo; settings: 100 ppm; read after 72 hours; immobility regarded as mortality
Method: Test Procedures for Root-Knot Nematode Solution Assay (Meloidogyne incognita):
To microtiter plates containing about 1.0 mg of compound, 80:20 acetone was added to each well and the solution was mixed to obtain the desired compound concentration. The aqueous nematode suspension containing 20 to 50 Meloidogyne incognita J2 larvae per […] was added to each plate. The plates were then sealed and they were placed in an incubator at 27° C. and about 50% relative humidity. After 72 hours, the population mortality was read, whereby immobility of nematodes was regarded as mortality.

[2] = tested on: Yellowfever mosquitos (aedes aegypti); assay: Yellowfever mosquito water treatment test, 4th instar; assay type: in vivo; settings: 50 ppm; after 6 days
Method: Yellowfever mosquitos (aedes aegypti)
The test compound (1 Vol % in acetone) was applied to water in glass dishes containing 4th instar aedes aegypti. The test dishes were maintained at about 25° C. and observed daily for mortality. Each test weas replicated in 3 test dishes.

Structure (SMILES) | mortality compared to untreated controls [1] [%] | mortality compared to untreated controls [2]
FC(F)(F)c1ccc2c(c1)C(N1CCN(c3ccccc3)CC1)=Nc1ccccc1S2 [I-A.51] | 100 | 
Clc1ccc2c(c1)Oc1ccc(Cl)cc1C(N1CCNCC1)=N2 [I-B.23] |  | over 90%
